1 compound from patent publication US20180251847A1, “METHOD OF PREDICTING THE TUMOR RESPONSE TO DNA METHYLATION INHIBITORS AND ALTERNATIVE THERAPEUTIC REGIMEN FOR OVERCOMING RESISTANCE” (PALACKY UNIVERSITY, OLOMOUC, priority 2014, published 2018) can be followed below.

Molecules are shown by their SMILES. Read-outs that look alike come from different tables or passages of the source.

The test system of one test is R2.2 (HCT116-RDAC). Kind of test: MTT based cell survival assay, DAC resistant HCT116 clone R2.2. Also on record: species or system human. On the procedure:
(§1) The DAC resistant HCT116 cell lines were developed using two methods.
(§2) The method is primarily based on reduction of yellow colored tetrazolium salt, 3-(4,5-dimethylthiazol-2-yl)-2,5-diphenyltetrazolium bromide (MTT) to insoluble purple colored formazan crystals by NAD(P)H-dependent oxidoreductase enzymes in mitochondria of the viable cell.
(§3) Cells in 80 μL of medium were plated in each of the experimental and the control wells, followed by addition of 20 μL medium with five-fold drug concentration to experimental wells. The wells with medium alone were included alongside as blank for absorbance readings. After 72 h of drug treatment, 10 μL MTT (Sigma-Aldrich) prepared in 1×PBS (5 mg/mL) was added to all wells including blank and control, and incubated until the purple formazan crystals were visible after which 100 μL of detergent (10% SDS, pH: 5.5) was added and the plates were incubated overnight to solubilize the formazan and the cellular material.
(§4) Cross resistance was determined as the fold increase, whereas, the sensitivity was determined as the fold decrease in the IC50 of the drugs for the resistant cell lines compared to their genetically identical drug sensitive counterpart.

The subject of another test is MCF-7. Kind of test: MTT based cell survival assay, parental MCF-7. The note with it: Homo sapiens, MCF7, read-out: Mean IC50. The method, then: To study the mechanism of resistance towards DNA methylation inhibitor, 2′-deoxy-5-azacytidine, we used the human colorectal cancer cell line (HCT116), human promyelocytic leukemia cells (HL-60), and human breast adenocarcinoma cell line (MCF-7) obtained from American Type Culture Collection (Manassas, Va.). The cell lines were cultured in complete growth media (Sigma-Aldrich, St. Louis, Mo.), supplemented with fetal bovine serum (FBS, PAN-Biotech GmbH, Aidenbach, Germany), 100 U/mL penicillin (Biotika, Slovenská L'upča, Slovak Republic) and 50 μg/mL streptomycin (Sigma-Aldrich), and the cultures were maintained at 37° C. and 5% CO2, in a humidified incubator. […]
(§5) To determine the IC50 of the epigenetic drugs (Tocris Bioscience, Bristol, United Kingdom), four independent experiments were performed using triplicate wells of 96 well plates. […] The wells with medium alone were included alongside as blank for absorbance readings. […]
as §4

In a further test the test system is DAC resistant cell lines. Briefly: MTT based cell survival assay, DAC resistant cell lines as a group. The conditions noted are these: Homo sapiens, all of the resistant cell lines, read-out: resistance to DAC (IC50). On the procedure:
The DAC resistant HCT116 cell lines were developed using two methods. […] After long term exposure of the cells to cytotoxic dose of the drug, the bulk population was determined to be resistant.
For cross validation of data obtained from comparative studies of HCT116 parental and resistant cells, we further developed DAC resistant MCF-7 and HL-60 cell lines. […] However, DAC resistant HL-60 cells were obtained as a gift from the author (Qin T. et al., Blood 2009; 113, 659-67) and was further selected in our laboratory by treatment with 5 μM DAC.
Resistance to DAC was confirmed by the MTT-based cell survival assay and resistance index was calculated as the fold increase in the IC50 of the resistant cell lines compared with the untreated control. All of the resistant cell lines were >100 μM resistant to DAC. […]
as §5, §4

Another test deals with HCT116. Kind of test: MTT based cell survival assay, parental HCT116. The note with it: Homo sapiens. Also on record: species or system human. On the procedure: To study the mechanism of resistance towards DNA methylation inhibitor, 2′-deoxy-5-azacytidine, we used the human colorectal cancer cell line (HCT116), human promyelocytic leukemia cells (HL-60), and human breast adenocarcinoma cell line (MCF-7) obtained from American Type Culture Collection (Manassas, Va.). The cell lines were cultured in complete growth media (Sigma-Aldrich, St. Louis, Mo.), supplemented with fetal bovine serum (FBS, PAN-Biotech GmbH, Aidenbach, Germany), 100 U/mL penicillin (Biotika, Slovenská L'upča, Slovak Republic) and 50 μg/mL streptomycin (Sigma-Aldrich), and the cultures were maintained at 37° C. and 5% CO2, in a humidified incubator. The cell line, HCT116 was grown in McCoy's 5 A medium supplemented with 10% FBS and 3 mM L-glutamine (Sigma-Aldrich), HL-60 was grown in Iscove's Modified Dulbecco's Medium with 20% FBS, and MCF-7 was grown in RPMI-1640 medium with 10% FBS.
The method is primarily based on reduction of yellow colored tetrazolium salt, 3-(4,5-dimethylthiazol-2-yl)-2,5-diphenyltetrazolium bromide (MTT) to insoluble purple colored formazan crystals by NAD(P)H-dependent oxidoreductase enzymes in mitochondria of the viable cell. The intensity of the purple color produced on solubilization of the formazan crystals is directly proportional to the number of viable cells (Meerloo J. V. et al., Methods in Molecular Biology 2011; 731, 237-45).
as §3, with “To determine the IC50 of the epigenetic drugs (Tocris Bioscience, Bristol, United Kingdom), four independent experiments were performed using triplicate wells of 96 well plates. Cells” for “Cells”, “[…],” for “After 72 h of drug treatment,”
as §4

A further test concerns R2.1 (HCT116-RDAC). Kind of test: MTT based cell survival assay, DAC resistant HCT116 clone R2.1. Also on record: species or system human. On the procedure: as §1, §2, §3, §4
Another test deals with R1.3 (HCT116-RDAC). Briefly: MTT based cell survival assay, DAC resistant HCT116 clone R1.3. Also on record: species or system human. The method, then:
as §1, §2, §3, §4

The mark [1] stands for this setting: Homo sapiens, HCT-116, 72 h, read-out: Mean IC50.

In the case of `Nc1ncn([C@H]2C[C@H](O)[C@@H](CO)O2)c(=O)n1` [DAC, 2′-deoxy-5-azacytidine], the IC50 is more than 100 µM in the test on R2.2 (HCT116-RDAC) (setting [1]); 0.238 µM in the test on MCF-7; more than 100 µM in the test with DAC resistant cell lines; 0.28 µM in the test on HCT116 (HCT-116, 72 h, read-out: Mean IC50); 0.28 µM in the test with HCT116 (HCT-116, 120 h, read-out: IC50 concentration of the drug); more than 100 µM with R2.1 (HCT116-RDAC) (Homo sapiens, HCT-116, R2.1, MTT, 72 h drug treatment). Moreover, the IC50 in the test on R1.3 (HCT116-RDAC) (setting [1]) was more than 100 µM. In addition, the “fold change (resistance index)” value in the test with R2.2 (HCT116-RDAC) (IC50 R2.2 / IC50 HCT116), with R2.1 (HCT116-RDAC) (IC50 R2.1 / IC50 HCT116) and in the test on R1.3 (HCT116-RDAC) (IC50 R1.3 / IC50 HCT116) was “(>357) fold” in each case.
